# Assay results as given in patent US11365193B2, “Oxadiazole compound and fungicide for agricultural and horticultural use” (Nippon Soda Co., Ltd., priority 2017, dated 2022).
# System: wheat red rust pathogen (Puccinia recondita)
# Experiment: Test Example 1: wheat red rust disease control test (100 ppm)
# Format: in vivo
# Details: 100 ppm by mass sprayed on wheat young seedlings (Norin 61), inoculated after air-drying; blotch area ratio 12 days after inoculation
# Protocol: 5 parts by, mass of an oxadiazole compound, 93.5 parts by mass of dimethylformamide, and 1.5 parts by mass of polyoxyethylene alkyl aryl ether were mixed and dissolved to obtain an emulsion (I) containing 5% by mass of the active ingradient.
# The control value was calculated by the following formula. Control value (%)=100-{blotch area ratio in treated area/blotch area ratio in untreated area}×100
# Water was added to the emulsion (I) such that the concentration of the oxadiazole compound became 100 ppm by mass, and then the oxadiazole compound was dissolved to obtain a pharmaceutical solution. Then, the pharmaceutical solution was sprayed on wheat young seedings (variety “Norin 61” at the first to second leaf stage) grown in nursery pots. After air-drying, the wheat young seedings sprayed with the pharmaceutical solution were inoculated with summer spores of wheat red rust pathogen (Puccinia recondita) by spraying the summer spores (in treated area).
# As a control, wheat young seedings that were not sprayed with the pharmaceutical solution were inoculated in the same manner as mentioned above (in untreated area).
# The wheat young seedings were placed under humid conditions at 20° C. for 1 day. […] After 12 days passed from inoculation, leaves of the wheat seedings were visually observed to measure the blotch area ratio, and the control value was calculated.
row,SMILES,Control value
1,C[S+]([O-])CCOc1cc(=O)n(Cc2ccc(-c3noc(C(F)(F)F)n3)cc2)cn1 (centres unmarked) [Compound 2-75],2-75%

# System: not given
# Experiment: not given
# Details: not given
row,SMILES,melting point
1,O=c1c2c(ncn1Cc1ccc(-c3noc(C(F)(F)F)n3)cc1)CCC2 [Compound 1-25],165 to 168 °C
2,O=c1cccnn1-c1ccc(-c2noc(C(F)(F)F)n2)cc1 [Compound 1-5],97 to 100 °C
3,O=C(Cc1ccc(-c2noc(C(F)(F)F)n2)cc1)N1CC(=NOCC(F)(F)F)C1 [Compound 9],126 to 129 °C
4,Cc1nc2c(c(=O)n1Cc1ccc(-c3noc(C(F)(F)F)n3)cc1)CCCC2 [Compound 1-34],132 to 135 °C
5,O=C(Cn1ncccc1=O)c1ccc(-c2noc(C(F)(F)F)n2)cc1 [Compound 1-15],122 to 125 °C
6,O=c1c2c(ncn1Cc1ccc(-c3noc(C(F)(F)F)n3)cc1)CCCC2 [Compound 1-26],157 to 160 °C
7,CON=C1CN(C(=O)Cc2ccc(-c3noc(C(F)(F)F)n3)cc2)C1 [Compound 7],172 to 176 °C
8,O=C(Cc1ccc(-c2noc(C(F)(F)F)n2)cc1)N1CCC(=NOC2CCCCO2)CC1 (centres unmarked) [Compound 15],104 to 106 °C
9,O=c1ccccn1-c1ccc(-c2noc(C(F)(F)F)n2)cc1 [Compound 1-2],130 to 133 °C
10,Cc1ccc(=O)n(-c2ccc(-c3noc(C(F)(F)F)n3)cc2)n1 [Compound 1-9],78 to 83 °C
11,CCON=C1CCN(C(=O)Cc2cccc(-c3noc(C(F)(F)F)n3)c2)CC1 [Compound 11],83 to 86 °C
12,COCCON=C1CN(C(=O)Cc2ccc(-c3noc(C(F)(F)F)n3)cc2)C1 [Compound 19],114 to 116 °C
13,O=c1c2ccccc2cnn1Cc1ccc(-c2noc(C(F)(F)F)n2)cc1 [Compound 1-11],133 to 136 °C
14,N#CCON=C1CCN(C(=O)Cc2ccc(-c3noc(C(F)(F)F)n3)cc2)CC1 [Compound 20],126 to 128 °C
15,O=C(Cc1ccc(-c2noc(C(F)(F)F)n2)cc1)N1CC(=NOCc2ccccc2)C1 [Compound 17],139 to 140 °C
16,CON=C1CCN(C(=O)Cc2ccc(-c3noc(C(F)(F)F)n3)cc2)CC1 [Compound 8],73 to 76 °C
17,Cc1ccn(-c2ccc(-c3noc(C(F)(F)F)n3)cc2)c(=O)c1 [Compound 1-8],151 to 154 °C
18,Cn1ncc2c(=O)n(Cc3ccc(-c4noc(C(F)(F)F)n4)cc3)cnc21 [Compound 1-24],225 to 228 °C
19,C[S+]([O-])c1cnn(-c2ccc(-c3noc(C(F)(F)F)n3)cc2)c(=O)c1 (centres unmarked) [Compound 1-17],145 to 147 °C
20,O=C(Cc1ccc(-c2noc(C(F)(F)F)n2)cc1)N1CCC(=NOCC(F)(F)F)CC1 [Compound 10],84 to 86 °C
21,O=C(Cc1ccc(-c2noc(C(F)(F)F)n2)cc1)N1CC(=NOCC(F)F)C1 [Compound 41],140 to 141 °C
22,O=c1cc2c(nn1Cc1ccc(-c3noc(C(F)(F)F)n3)cc1)CCC2 [Compound 1-31],94 to 97 °C

row,SMILES,melting point
1,O=c1c2ccccc2cnn1-c1ccc(-c2noc(C(F)(F)F)n2)cc1 [Compound 1-10],141 to 144 °C
2,O=c1cc(OCC=NOCc2ccccc2)ncn1Cc1ccc(-c2noc(C(F)(F)F)n2)cc1 [Compound 1-44],78 to 80 °C
3,CC(C)ON=C1CCN(C(=O)Cc2ccc(-c3noc(C(F)(F)F)n3)cc2)CC1 [Compound 22],96 to 100 °C
4,CCON=C1CN(C(=O)C(=NOC)c2ccc(-c3noc(C(F)(F)F)n3)cc2)C1 [Compound 31],147 to 149 °C
5,O=c1cc(OCC=NOC2CCCCO2)ncn1Cc1ccc(-c2noc(C(F)(F)F)n2)cc1 (centres unmarked) [Compound 1-42],103 to 106 °C
6,Cc1nc2c(cnn2C)c(=O)n1Cc1ccc(-c2noc(C(F)(F)F)n2)cc1 [Compound 1-23],118 to 120 °C
7,N#CCON=CCOc1cc(=O)n(Cc2ccc(-c3noc(C(F)(F)F)n3)cc2)cn1 [Compound 1-46],131 to 133 °C
8,CON=C1CN(C(=O)c2ccc(-c3noc(C(F)(F)F)n3)cc2)C1 [Compound 2],162 to 165 °C
9,CCON=C1CCN(C(=O)Cc2ccc(-c3noc(C(F)(F)F)n3)cc2)CC1SC (centres unmarked) [Compound 32],80 to 82 °C
10,O=c1cccnn1CC1(c2ccc(-c3noc(C(F)(F)F)n3)cc2)OCCO1 [Compound 1-14],105 to 107 °C
11,CON=CCOc1cc(=O)n(Cc2ccc(-c3noc(C(F)(F)F)n3)cc2)cn1 [Compound 1-38],143 to 148 °C
12,CSc1cnn(-c2ccc(-c3noc(C(F)(F)F)n3)cc2)c(=O)c1 [Compound 1-16],151 to 153 °C
13,O=c1c2ccccc2ncn1-c1ccc(-c2noc(C(F)(F)F)n2)cc1 [Compound 1-4],233 to 235 °C
14,O=C(Cc1ccc(-c2noc(C(F)(F)F)n2)cc1)N1CC(=NOC2CCCCO2)C1 (centres unmarked) [Compound 16],82 to 83 °C
15,Cc1noc2cnn(Cc3ccc(-c4noc(C(F)(F)F)n4)cc3)c(=O)c12 [Compound 1-21],158 to 160 °C
16,CCON=C1CCN(C(=O)Cc2ccc(-c3noc(C(F)(F)F)n3)cc2)CC1S(C)(=O)=O (centres unmarked) [Compound 34],128 to 130 °C
17,CCON=CCOc1cc(=O)n(Cc2ccc(-c3noc(C(F)(F)F)n3)cc2)cn1 [Compound 1-40],139 to 142 °C
18,O=c1cc2ccccc2cn1Cc1ccc(-c2noc(C(F)(F)F)n2)cc1 [Compound 1-6],165 to 168 °C
19,O=c1c2ccccc2ncn1Cc1ccc(-c2noc(C(F)(F)F)n2)cc1 [Compound 1-3],178 to 180 °C
20,Cc1nn(C)c2nc(C)n(Cc3ccc(-c4noc(C(F)(F)F)n4)cc3)c(=O)c12 [Compound 1-30],163 to 166 °C
21,O=c1cccnn1CC(O)c1ccc(-c2noc(C(F)(F)F)n2)cc1 (centres unmarked) [Compound 1-36],119 to 121 °C
22,O=c1c2c(cnn1Cc1ccc(-c3noc(C(F)(F)F)n3)cc1)OCCC2 [Compound 1-32],87 to 89 °C

row,SMILES,melting point
1,CSCCON=C1CCN(C(=O)Cc2ccc(-c3noc(C(F)(F)F)n3)cc2)CC1 [Compound 27],68 to 69 °C
2,CCON=C1CN(C(=O)Cc2ccc(-c3noc(C(F)(F)F)n3)cc2)C1 [Compound 5],130 to 134 °C
3,COCCON=CCOc1cc(=O)n(Cc2ccc(-c3noc(C(F)(F)F)n3)cc2)cn1 [Compound 1-41],94 to 96 °C
4,CON=C1CCN(C(=O)Cc2ccc(-c3noc(C(F)(F)F)n3)cc2)CC1SC (centres unmarked) [Compound 33],120 to 121 °C
5,O=C(Cc1ccc(-c2noc(C(F)(F)F)n2)cc1)N1CCC(=NO)CC1 [Compound 25],191 to 192 °C
6,CCON=C1CN(C(=O)C(SC)c2ccc(-c3noc(C(F)(F)F)n3)cc2)C1 (centres unmarked) [Compound 44],108 to 110 °C
7,CCCON=C1CN(C(=O)C(SCC)c2ccc(-c3noc(C(F)(F)F)n3)cc2)C1 (centres unmarked) [Compound 45],83 to 85 °C
8,CCSCON=C1CN(C(=O)Cc2ccc(-c3noc(C(F)(F)F)n3)cc2)C1 [Compound 12],73 to 75 °C
9,CON=CCOc1ncn(Cc2ccc(-c3noc(C(F)(F)F)n3)cc2)c(=O)c1Cl [Compound 1-37],201 to 203 °C
10,CCON=C1CN(C(=O)C(=O)c2ccc(-c3noc(C(F)(F)F)n3)cc2)C1 [Compound 30],139 to 141 °C
11,CS(=O)(=O)c1cnn(-c2ccc(-c3noc(C(F)(F)F)n3)cc2)c(=O)c1 [Compound 1-18],186 to 188 °C
12,Cc1nn(C)c2cnn(Cc3ccc(-c4noc(C(F)(F)F)n4)cc3)c(=O)c12 [Compound 1-22],187 to 190 °C
13,Cl.O=c1c2c(ncn1Cc1ccc(-c3noc(C(F)(F)F)n3)cc1)CNCC2 [Compound 1-47],192 to 195 °C
14,O=C(C(=NOCC(F)(F)F)c1ccc(-c2noc(C(F)(F)F)n2)cc1)n1ncccc1=O [Compound 1-29],82 to 98 °C
15,N#CCON=C1CN(C(=O)Cc2ccc(-c3noc(C(F)(F)F)n3)cc2)C1 [Compound 21],125 to 126 °C
16,O=c1cc(OCC=NOCC(F)F)ncn1Cc1ccc(-c2noc(C(F)(F)F)n2)cc1 [Compound 1-45],111 to 115 °C
17,N#CCCON=C1CCN(C(=O)Cc2ccc(-c3noc(C(F)(F)F)n3)cc2)CC1 [Compound 26],71 to 72 °C
18,O=c1cc(N2CCOCC2)ncn1Cc1ccc(-c2noc(C(F)(F)F)n2)cc1 [Compound 1-52],235 to 237 °C
19,O=c1cccnn1CCc1ccc(-c2noc(C(F)(F)F)n2)cc1 [Compound 1-33],74 to 80 °C
20,CCON=C1CCN(C(=O)Cc2ccc(-c3noc(C(F)(F)F)n3)cc2)CC1 [Compound 6],86 to 88 °C
